Data taken from ChEMBL document CHEMBL1158093, “Isolation, structure elucidation, and biological evaluation of 15-amido-3-demethoxy-2alpha,3alpha-methylenedioxyerythroculine, a new alkaloid from Hyperbaena valida” (J Nat Prod, 2006).
pIC50: −log10 of the molar value. Calls of active or inactive are those of the source. The calls are words filed in the database; no cut-off is given here.

What was measured:
[1] = target: Neuronal acetylcholine receptor; alpha3/beta4 (Rattus norvegicus) (UniProt P04757+P12392); experiment: Agonist activity at rat alpha3beta4 nicotinic receptor expressed in KXalpha-3-beta-4R2 cells assessed as nicotine-induced calcium fluorescence; assay type: functional, cell-based
[2] = target: T1, Neuronal acetylcholine receptor; alpha3/beta4 (Rattus norvegicus, UniProt P04757+P12392); experiment: Antagonist activity at rat alpha3beta4 nicotinic receptor expressed in KXalpha-3-beta-4R2 cells assessed as nicotine-induced calcium fluorescence; assay type: functional, cell-based
T1 sequence (P04757 whole entry): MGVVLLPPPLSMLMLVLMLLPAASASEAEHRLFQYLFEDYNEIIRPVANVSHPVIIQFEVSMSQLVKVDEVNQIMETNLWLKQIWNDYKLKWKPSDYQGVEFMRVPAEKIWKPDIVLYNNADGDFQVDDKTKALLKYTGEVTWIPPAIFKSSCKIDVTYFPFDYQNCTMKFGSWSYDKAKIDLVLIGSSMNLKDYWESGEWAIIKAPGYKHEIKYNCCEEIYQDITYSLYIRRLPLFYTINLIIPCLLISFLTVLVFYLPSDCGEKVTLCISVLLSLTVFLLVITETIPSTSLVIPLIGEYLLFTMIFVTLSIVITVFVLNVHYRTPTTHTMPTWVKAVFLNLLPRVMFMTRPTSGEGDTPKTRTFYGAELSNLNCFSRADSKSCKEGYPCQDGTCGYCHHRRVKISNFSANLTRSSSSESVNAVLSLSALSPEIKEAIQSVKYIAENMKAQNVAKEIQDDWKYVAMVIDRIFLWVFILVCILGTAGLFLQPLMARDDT
T1 sequence (P12392 whole entry): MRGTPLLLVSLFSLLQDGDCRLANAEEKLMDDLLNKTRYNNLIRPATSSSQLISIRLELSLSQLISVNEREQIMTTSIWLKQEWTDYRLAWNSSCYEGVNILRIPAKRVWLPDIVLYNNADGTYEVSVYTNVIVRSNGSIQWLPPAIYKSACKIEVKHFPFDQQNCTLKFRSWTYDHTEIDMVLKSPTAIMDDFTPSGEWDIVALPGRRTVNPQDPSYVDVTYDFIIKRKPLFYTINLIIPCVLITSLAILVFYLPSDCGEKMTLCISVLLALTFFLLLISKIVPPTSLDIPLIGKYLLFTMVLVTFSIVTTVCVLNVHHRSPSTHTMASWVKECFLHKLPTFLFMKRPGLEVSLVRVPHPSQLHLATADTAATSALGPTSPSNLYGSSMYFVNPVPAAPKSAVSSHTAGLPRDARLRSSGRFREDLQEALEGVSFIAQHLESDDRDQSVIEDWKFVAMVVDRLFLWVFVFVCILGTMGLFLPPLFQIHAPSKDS

[3] = target: T1, Neuronal acetylcholine receptor; alpha3/beta4; experiment: Activity at rat alpha3beta4 nicotinic receptor expressed in KXalpha-3-beta-4R2 cells assessed as nicotine-induced 86Rb+ efflux; assay type: cell-based

| Structure (SMILES) | Activity [1] | pIC50 [2] | pIC50 [3] |
| --- | --- | --- | --- |
| COC(=O)c1cc2c(cc1OC)CCN1CCC3=C[C@@H]4OCO[C@@H]4C[C@]321 | inactive | 4.11 | – |
| CO[C@H]1CC=C2CCN3CCC4=C(CC(=O)OC4)[C@]23C1 | – | – | 4.00 |
| COc1cc2c(cc1C(N)=O)[C@]13C[C@H]4OCO[C@H]4C=C1CCN3CC2 | inactive | 4.03 | – |
